Holding throughout (assay type): functional
One test relates to MDA-MB-231. Put plainly: Growth inhibition of human MDA-MB-231 cells assessed as cell growth at 1 uM incubated for 48 hrs by sulforhodamine B assay relative to control. Conditions: MDA-MB-231, 48 h, read-out: Activity.
A further test relates to MOLT-4. Put plainly: Growth inhibition of human MOLT4 cells assessed as cell growth at 10 uM incubated for 48 hrs by sulforhodamine B assay relative to control. Conditions: MOLT-4, 48 h, read-out: Activity. (In SRB staining, fixed cells bind dye roughly in proportion to their protein.)
A further test deals with HCT-116. The test is described as follows: Growth inhibition of human HCT116 cells assessed as cell growth at 1 uM incubated for 48 hrs by sulforhodamine B assay relative to control. Conditions: HCT-116, 48 h, read-out: Activity.
The next test deals with LOX IMVI. The test is described as follows: Growth inhibition of human LOXIMVI cells assessed as cell growth at 1 uM incubated for 48 hrs by sulforhodamine B assay relative to control. Conditions: read-out: Activity.
Test [1] deals with CCRF-CEM. Put plainly: Growth inhibition of human CCRF-CEM cells assessed as cell growth at 10 uM incubated for 48 hrs by sulforhodamine B assay relative to control. Conditions: read-out: Activity.
The next test has as its system ACHN. The test is described as follows: Growth inhibition of human ACHN cells assessed as cell growth at 0.1 uM incubated for 48 hrs by sulforhodamine B assay relative to control. Conditions: read-out: Activity.
A further test relates to SF-295. Put plainly: Growth inhibition of human SF295 cells assessed as cell growth at 0.01 uM incubated for 48 hrs by sulforhodamine B assay relative to control. Conditions: SF-295, 48 h, read-out: Activity.
The subject of another test is SR. The test is described as follows: Growth inhibition of human SR cells assessed as cell growth at 1 uM incubated for 48 hrs by sulforhodamine B assay relative to control. Conditions: read-out: Activity.
The subject of test [2] is Malme-3M. The test is described as follows: Growth inhibition of human MALME-3M cells assessed as cell growth at 10 uM incubated for 48 hrs by sulforhodamine B assay relative to control. Conditions: read-out: Activity.
Another test has as its system COLO 205. Put plainly: Growth inhibition of human COLO205 cells assessed as cell growth at 0.1 uM incubated for 48 hrs by sulforhodamine B assay relative to control. Conditions: COLO 205, 48 h, read-out: Activity.
Test [3] concerns M14. The test is described as follows: Growth inhibition of human M14 cells assessed as cell growth at 1 uM incubated for 48 hrs by sulforhodamine B assay relative to control. Conditions: M14, 48 h, read-out: Activity.
In the next test the test system is A549. Put plainly: Growth inhibition of human A549/ATCC cells assessed as cell growth at 10 uM incubated for 48 hrs by sulforhodamine B assay relative to control. Conditions: A549, 48 h, read-out: Activity.
The test system of test [4] is SN12C. Put plainly: Growth inhibition of human SN12C cells assessed as cell growth at 10 uM incubated for 48 hrs by sulforhodamine B assay relative to control. Conditions: read-out: Activity.
For a further test, the system named is OVCAR-8. Put plainly: Growth inhibition of human OVCAR8 cells assessed as cell growth at 10 uM incubated for 48 hrs by sulforhodamine B assay relative to control. Conditions: OVCAR-8, 48 h, read-out: Activity.
Test [5] concerns Malme-3M. Put plainly: Growth inhibition of human MALME-3M cells assessed as cell growth at 0.01 uM incubated for 48 hrs by sulforhodamine B assay relative to control. Conditions: read-out: Activity.
For test [6], the system named is NCI-H23. Put plainly: Growth inhibition of human NCI-H23 cells assessed as cell growth at 1 uM incubated for 48 hrs by sulforhodamine B assay relative to control. Conditions: NCI-H23, 48 h, read-out: Activity.
Another test deals with HOP-62. The test is described as follows: Growth inhibition of human HOP62 cells assessed as cell growth at 0.1 uM incubated for 48 hrs by sulforhodamine B assay relative to control. Conditions: HOP-62, 48 h, read-out: Activity.
Test [7] deals with KM12. The test is described as follows: Growth inhibition of human KM12 cells assessed as cell growth at 1 uM incubated for 48 hrs by sulforhodamine B assay relative to control. Conditions: KM12, 48 h, read-out: Activity.
The subject of the next test is PC-3. Put plainly: Growth inhibition of human PC3 cells assessed as cell growth at 100 uM incubated for 48 hrs by sulforhodamine B assay relative to control. Conditions: PC-3, 48 h, read-out: Activity.
The next test has as its system OVCAR-3. The test is described as follows: Growth inhibition of human OVCAR3 cells assessed as cell growth at 0.03 uM incubated for 48 hrs by sulforhodamine B assay relative to control. Conditions: OVCAR-3, 48 h, read-out: Activity.
The test system of test [8] is M14. Put plainly: Growth inhibition of human M14 cells assessed as cell growth at 3 uM incubated for 48 hrs by sulforhodamine B assay relative to control. Conditions: M14, 48 h, read-out: Activity.
Another test deals with SK-MEL-28. Put plainly: Growth inhibition of human SK-MEL-28 cells assessed as cell growth at 0.03 uM incubated for 48 hrs by sulforhodamine B assay relative to control. Conditions: SK-MEL-28, 48 h, read-out: Activity.
The subject of a further test is SNB-19. The test is described as follows: Growth inhibition of human SNB19 cells assessed as cell growth at 30 uM incubated for 48 hrs by sulforhodamine B assay relative to control. Conditions: SNB-19, 48 h, read-out: Activity.
A further test relates to DU-145. The test is described as follows: Growth inhibition of human DU145 cells assessed as cell growth at 0.003 uM incubated for 48 hrs by sulforhodamine B assay relative to control. Conditions: DU-145, 48 h, read-out: Activity.
A further test relates to T47D. The test is described as follows: Growth inhibition of human T47D cells assessed as cell growth at 0.003 uM incubated for 48 hrs by sulforhodamine B assay relative to control. Conditions: read-out: Activity.
In the next test the test system is UACC-257. Put plainly: Growth inhibition of human UACC257 cells assessed as cell growth at 0.003 uM incubated for 48 hrs by sulforhodamine B assay relative to control. Conditions: UACC-257, 48 h, read-out: Activity.
In test [9] the test system is SNB-75. Put plainly: Growth inhibition of human SNB75 cells assessed as cell growth at 0.03 uM incubated for 48 hrs by sulforhodamine B assay relative to control. Conditions: SNB-75, 48 h, read-out: Activity.
For test [10], the system named is Malme-3M. Put plainly: Growth inhibition of human MALME-3M cells assessed as cell growth at 0.03 uM incubated for 48 hrs by sulforhodamine B assay relative to control. Conditions: read-out: Activity.
In test [11] the test system is SNB-75. The test is described as follows: Growth inhibition of human SNB75 cells assessed as cell growth at 0.003 uM incubated for 48 hrs by sulforhodamine B assay relative to control. Conditions: SNB-75, 48 h, read-out: Activity.
The subject of test [12] is CCRF-CEM. The test is described as follows: Growth inhibition of human CCRF-CEM cells assessed as cell growth at 0.003 uM incubated for 48 hrs by sulforhodamine B assay relative to control. Conditions: read-out: Activity.
Test [13] has as its system KM12. The test is described as follows: Growth inhibition of human KM12 cells assessed as cell growth at 3 uM incubated for 48 hrs by sulforhodamine B assay relative to control. Conditions: KM12, 48 h, read-out: Activity.
Test [14] has as its system NCI-H23. Put plainly: Growth inhibition of human NCI-H23 cells assessed as cell growth at 30 uM incubated for 48 hrs by sulforhodamine B assay relative to control. Conditions: NCI-H23, 48 h, read-out: Activity.
Test [15] relates to SN12C. Put plainly: Growth inhibition of human SN12C cells assessed as cell growth at 0.3 uM incubated for 48 hrs by sulforhodamine B assay relative to control. Conditions: read-out: Activity.
In a further test the test system is MDA-MB-435. Put plainly: Growth inhibition of human MDA-MB-435 cells assessed as cell growth at 30 uM incubated for 48 hrs by sulforhodamine B assay relative to control. Conditions: MDA-MB-435, 48 h, read-out: Activity.
The next test relates to HT-29. Put plainly: Growth inhibition of human HT-29 cells assessed as cell growth at 0.003 uM incubated for 48 hrs by sulforhodamine B assay relative to control. Conditions: HT-29, 48 h, read-out: Activity.

Structures are written as SMILES.

Growth data for four compounds are collected here from ChEMBL document CHEMBL3994622, “Design and synthesis of new RAF kinase-inhibiting antiproliferative quinoline derivatives. Part 2: Diarylurea derivatives” (Eur J Med Chem, 2017).

In the case of `COc1cc2cc(Oc3ccc(NC(=O)Nc4cc(C(F)(F)F)cc(C(F)(F)F)c4)cc3)c(C)nc2cc1OC`, the growth at 1 µM with MDA-MB-231 came out at 55%; with HCT-116 it was 33%; in the test with LOX IMVI it was 75%; with SR, 69%; in the test on M14 [3], 50%; with NCI-H23 [6], 39%. In the test with KM12 [7], the growth at 1 µM worked out at 48%. Besides, the growth at 10 µM with MOLT-4 was -36%; in the test with CCRF-CEM [1], -33%; with Malme-3M [2], -46%; with A549, -31%; in the test on SN12C [4], -75%; in the test on OVCAR-8, -46%. Besides, the growth at 0.1 µM came to 98% in the test with ACHN, 100% with COLO 205 and 94% with HOP-62. For the same compound, the growth at 0.01 µM with SF-295 worked out at 88%; in the test on Malme-3M [5], 87%. Moreover, the growth at 100 µM in the test with PC-3 is -57%.
On to `Cc1nc2cc(O)c(O)cc2cc1Oc1ccc(NC(=O)Nc2ccc(Cl)c(Cl)c2)cc1`, for which the growth at 0.03 µM was found to be 107% in the test on OVCAR-3, 87% in the test on SK-MEL-28, 81% with SNB-75 [9] and 101% with Malme-3M [10]. Also, the growth at 3 µM with M14 [8] amounted to 86%; in the test with KM12 [13], 95%. For the same compound, the growth at 30 µM was 2% with SNB-19, -25% with NCI-H23 [14] and 7% in the test on MDA-MB-435. In addition, the growth at 0.003 µM was determined as 105% with DU-145; 102% in the test with T47D; 85% with UACC-257; 80% in the test on SNB-75 [11]; 97% in the test with CCRF-CEM [12]; 103% with HT-29. Also, the growth at 0.3 µM with SN12C [15] came out at 105%.
In the case of `COc1cc2cc(Oc3ccc(NC(=O)Nc4ccc(Cl)c(Cl)c4)cc3)c(C)nc2cc1OC`, the growth at 1 µM stood at 77% in the test on MDA-MB-231; 76% with HCT-116; 85% with LOX IMVI; 98% in the test on SR; 83% in the test on M14 [3]; 89% with NCI-H23 [6]. Also, the growth at 1 µM with KM12 [7] worked out at 93%. Besides, the growth at 10 µM in the test on MOLT-4 was 7%; in the test with CCRF-CEM [1], 4%; in the test with Malme-3M [2], -14%; with A549 it was -9%; in the test with SN12C [4], 19%; with OVCAR-8 it was 13%. Moreover, the growth at 0.1 µM is 105% in the test with ACHN, 107% in the test with COLO 205 and 104% in the test with HOP-62. For the same compound, the results for the growth at 0.01 µM in the test on SF-295 and with Malme-3M [5] were 88% and 102%, respectively. Moreover, the growth at 100 µM in the test with PC-3 is -96%.
For the compound `COc1cc2cc(Oc3ccc(NC(=O)Nc4ccc(Cl)c(C(F)(F)F)c4)cc3)c(C)nc2cc1OC`, the growth at 0.03 µM in the test on OVCAR-3 turned out to be 91%; in the test on SK-MEL-28, 98%; in the test on SNB-75 [9] it was 84%; in the test with Malme-3M [10], 100%. Further, the results for the growth at 3 µM in the test with M14 [8] and in the test with KM12 [13] were 18% and 7%, respectively. Further, the results for the growth at 30 µM in the test with SNB-19, in the test on NCI-H23 [14] and in the test with MDA-MB-435 were -87%, -75% and -46%, respectively. Besides, the growth at 0.003 µM in the test with DU-145 was found to be 100%; in the test with T47D it was 94%; in the test on UACC-257 it was 94%; in the test with SNB-75 [11], 90%; with CCRF-CEM [12], 111%; in the test with HT-29, 97%. Moreover, the growth at 0.3 µM in the test on SN12C [15] stood at 94%.
